The values that follow are results of earlier work, collected in patent US20120231098A1, “Weight loss composition” (priority 2011, published 2012).

For the data set the following is noted: by increasing the utilization of fat stores in the body during exercise.

Regarding `Cn1c(=O)c2c(ncn2C)n(C)c1=O` [Caffeine, caffeine], the increase in endurance is given as no less than 15%.
